Laboratory results: ChEMBL document CHEMBL6178019, “Discovery of CYP1A1 Inhibitors for Host-Directed Therapy against Sepsis” (J Med Chem, 2025)
Active and inactive are the calls of the source. The calls are words filed in the database; no cut-off is given here.

Key:
[1] = molecular target: T1, CYP1A1 (Mus musculus, UniProt P00184); assay: Inhibition of CYP1A1 in mouse RAW264.7 cells assessed as relative activity by measuring fold change at 500 nM incubated for 12 hrs by EROD assay relative to control; format: cell-based; settings: read-out: FC
T1 sequence (P00184 whole entry): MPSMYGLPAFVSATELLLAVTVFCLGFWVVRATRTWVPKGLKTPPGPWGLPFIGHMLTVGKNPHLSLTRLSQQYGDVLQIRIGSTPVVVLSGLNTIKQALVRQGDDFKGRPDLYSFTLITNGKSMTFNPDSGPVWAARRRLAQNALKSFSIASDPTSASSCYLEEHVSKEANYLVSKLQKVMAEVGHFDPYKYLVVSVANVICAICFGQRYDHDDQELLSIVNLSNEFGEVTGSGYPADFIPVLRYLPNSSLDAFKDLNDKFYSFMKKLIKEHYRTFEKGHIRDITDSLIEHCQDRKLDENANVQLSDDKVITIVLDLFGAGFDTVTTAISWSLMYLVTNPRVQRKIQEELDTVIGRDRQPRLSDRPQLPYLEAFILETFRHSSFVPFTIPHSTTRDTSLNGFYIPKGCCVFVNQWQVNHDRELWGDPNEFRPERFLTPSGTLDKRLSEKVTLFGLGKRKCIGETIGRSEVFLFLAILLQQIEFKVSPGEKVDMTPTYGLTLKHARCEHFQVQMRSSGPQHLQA

[2] = Toxicity in male C57BL/6 mouse assessed as change in body weight at 1 to 100 mg/kg, ip measured after 7 days; format: organism-based; settings: in vivo, 168 h, dose 1-100 mg/kg, time 7 day
[3] = tested on: RAW264.7; assay: Induction of phagocytosis in zymosan A stimulated mouse RAW264.7 cells assessed as upregulation of CD68 mRNA expression at 5.0 uM incubated for 12 hrs by qRT-PCR analysis; format: functional, cell-based
[4] = tested on: RAW264.7; assay: Induction of phagocytosis in zymosan A stimulated mouse RAW264.7 cells assessed as upregulation of CD204 protein level at 5.0 uM incubated for 12 hrs by flow cytometric analysis; format: functional, cell-based
[5] = tested on: Staphylococcus aureus; assay: Antibacterial activity methicillin-resistant Staphylococcus aureus infected in C57BL/6 mouse model assessed as increase in survival at 25 mg/kg, ip preadministered for 12 hrs followed by bacterial infection and measured after 60 hrs by Kaplan Meier survival analysis; format: functional, organism-based; settings: time 72.0 hrs
[6] = tested on: Staphylococcus aureus; assay: Antibacterial activity against methicillin-resistant Staphylococcus aureus infected in C57BL/6 mouse model assessed as reduction in bacterial load in peritoneal lavage fluid at 25 mg/kg, ip pretreated for 12 hrs followed by bacterial infection and measured after 24 hrs relative to control; format: functional; design: scale not given: the % may be the effect or the level left; settings: time 36 hrs
[7] = tested on: Pseudomonas aeruginosa; assay: Antibacterial activity against Pseudomonas aeruginosa infected in C57BL/6 mouse assessed as increase in survival at 25 mg/kg, ip pretreated for 12 hrs followed by bacterial infection and measured after 60 hrs by Kaplan Meier survival analysis; format: functional, organism-based; settings: time 72.0 hrs
[8] = tested on: Staphylococcus aureus; assay: Antibacterial activity against methicillin-resistant Staphylococcus aureus infected in C57BL/6 mouse model assessed as reversal of aspartate aminotransferase level in serum at 25 mg/kg, ip administered for 12 hrs by absorbance based microplate reader; format: functional, organism-based
[9] = tested on: RAW264.7; assay: Induction of phagocytosis in mouse RAW264.7 cells assessed as upregulation of CD68 protein level by flow cytometric analysis; format: functional, cell-based
[10] = Toxicity in male C57BL/6 mouse assessed as effect on blood urea nitrogen level in serum up to 100 mg/kg, ip measured after 12 hrs; format: organism-based; settings: in vivo
[11] = tested on: Staphylococcus aureus; assay: Antibacterial activity against methicillin-resistant Staphylococcus aureus assessed as inhibition of bacterial growth at 0.02 to 2.5 mg/ml; format: functional, organism-based; settings: dose 0.02-2.5 mg/ml
[12] = tested on: Staphylococcus aureus; assay: Antibacterial activity against methicillin-resistant Staphylococcus aureus infected in macrophage-depleted mouse assessed as bacterial clearance in PLF at 25 mg/kg, ip pretreated with clodronate liposomes for 48 hrs followed by compound administration for 12 hrs and measured after 24 hrs of bacterial infection; format: functional, organism-based; settings: time 36.0 hrs
[13] = tested on: RAW264.7; assay: Induction of phagocytosis in mouse RAW264.7 cells assessed as upregulation of CD32 mRNA expression by qRT-PCR analysis; format: functional, cell-based
[14] = tested on: Escherichia coli; assay: Antibacterial activity Escherichia coli infected in C57BL/6 mouse model assessed as increase in survival rate at 25 mg/kg, ip incubated for 12 hrs followed by bacterial infection and measured after 100 hrs by Kaplan Meier survival analysis; format: functional, organism-based; settings: time 112.0 hrs
[15] = tested on: Staphylococcus aureus; assay: Antibacterial activity against methicillin-resistant Staphylococcus aureus infected in C57BL/6 mouse assessed as reduction in kidney damage at 25 mg/kg, ip administered for 12 hrs by H and E staining based analysis; format: functional, organism-based
[16] = tested on: RAW264.7; assay: Induction of phagocytosis in mouse RAW264.7 cells assessed as upregulation of CD68 mRNA expression by qRT-PCR analysis; format: functional, cell-based
[17] = Toxicity in male C57BL/6 mouse assessed as effect on aspartate aminotransferase (AST) level in serum up to 100 mg/kg, ip measured after 12 hrs; format: organism-based; settings: in vivo
[18] = tested on: RAW264.7; assay: Induction of phagocytosis in zymosan A stimulated mouse RAW264.7 cells assessed as upregulation of CD68 protein level at 5.0 uM incubated for 12 hrs by flow cytometric analysis; format: functional, cell-based
[19] = tested on: Staphylococcus aureus; assay: Antibacterial activity against methicillin-resistant Staphylococcus aureus infected in C57BL/6 mouse model assessed as reversal of alanine transaminase level in serum at 25 mg/kg, ip administered for 12 hrs by absorbance based microplate reader; format: functional, organism-based
[20] = Toxicity in male C57BL/6 mouse assessed as change in fur condition at 1 to 100 mg/kg, ip measured after 7 days; format: organism-based; settings: in vivo, 168 h, dose 1-100 mg/kg, time 7 day
[21] = tested on: Staphylococcus aureus; assay: Antibacterial activity against methicillin-resistant Staphylococcus aureus infected in CYP1A1 knockout mouse model assessed as increase in survival rate at 25 mg/kg, ip pretreated for 12 hrs followed by bacterial infection and measured after 60 hrs by Kaplan Meier survival analysis; format: functional, organism-based; settings: time 72.0 hrs
[22] = tested on: THP-1; assay: Induction of phagocytosis in human THP-1-derived macrophages infected with hexidine iodide labelled methicillin-R Staphylococcus aureus at 5 uM preincubated for 12 hrs followed by bacterial infection and measured after 1 hrs by fluorescence based confocal microscopic analysis; format: functional, cell-based; settings: time 13.0 hrs

SMILES	fold induction at 12 h, 0.5 µM [1]	Activity [2]	Activity [3]	Activity [4]	Activity [5]	Activity [6] [%]	Activity [7]	Activity [8]	Activity [9]	Activity [10]	Activity [11]	Activity [12]	Activity [13]	Activity [14]	Activity [15]	Activity [16]	Activity [17]	Activity [18]	Activity [19]	Activity [20]	also measured
C#Cc1ccccc1/C=C/C(=O)c1ccc2c(c1)n(C)c(=O)n2C	0.07	Non-toxic	Active	Active	Active	>70	Active	Active	Active	Non-toxic	Active	inactive	Active	Active	Active	Active	Non-toxic	Active	Active	Non-toxic	Activity [21]: inactive; Activity [22]: Active
Cn1cc(/C=C/C(=O)c2ccc3c(c2)n(C)c(=O)n3C)c2ccccc21	0.72	Non-toxic	Active	Active	Active	>70	Active	Active	Active	Non-toxic	Active	inactive	Active	Active	Active	Active	Non-toxic	Active	Active	Non-toxic	Activity [21]: inactive; Activity [22]: Active
